Data from US10370438B2, “Histamine-releasing factor (HRF), HRF-receptor and methods of modulating inflammation” (LA JOLLA INSTITUTE FOR ALLERGY AND IMMUNOLOGY, priority 2010, dated 2019).
Entries after “also recorded” stand apart in the source; their conditions may differ.

Experiments:
HRF/IgE binding = assay: Competition ELISA of IgE binding to GST-mHRF-coated wells; design: species or system mouse
Protocol: (§1) To identify an inhibitor of HRF/Ig interactions to dissect the extracellular function (═HRF function as a cytokine) separate from the intracellular functions in vivo settings, the major Ig-interacting HRF sequence was studied as a specific inhibitor of HRF/Ig interactions. IgE molecules were incubated in GST-mHRF-coated wells in the presence or absence (−) of the indicated concentrations of competitors, GST-N19, GST-mHRF or mHRF-His6 for 2 hours. After incubation, bound-IgE was detected by incubation with biotinylated anti-mouse IgE mAb, followed by streptavidin-HRP. […] By contrast, none of the shorter mHRF peptides tested (residues 1-6, 1-12, 5-19, and 9-19) inhibited HRF/IgE binding. GST-N19 inhibited HRF/IgG binding as well.

HRF/IgG binding = assay: Inhibition of HRF/IgG binding; design: species or system mouse
Protocol: as §1

[1] = tested on: CHO-K1 (Chinese hamster ovary cell); settings: CHO-K1, 3.6 or 36 μM, 2 days
Protocol: (§2) To analyze the effect of GST-N19 on intracellular functions of HRF/TCTP, the indicated cells were cultured in the absence (−) or presence of the indicated concentrations of GST or GST-N19 for 2 days, and live cells were counted in the presence of Trypan blue. […] The usual dose of HRF to stimulate basophils is 1.6-5 μM (Langdon, et al., J Leukoc Biol 84, 1151 (October, 2008)). Apoptosis was induced by growth factor withdrawal, IL-3 depletion, in BMMCs for 3 days and by 800 nM H2O2 in CHO-K1 cells for 2 days, and live cells were counted.

CHO-K1 cells = settings: 800 nM H2O2, 2 days
Protocol: as §2

BMMCs = type: cell-based, mouse
WT mice = assay: IgE/antigen-induced PCA with GST-N19 ear injection; type: in vivo, mouse
Protocol: Mouse ears were first sensitized with 0.5 μg anti-TNP (C38-2 in the right ear and C48-2 in the left ear) IgE. After 24 hours, Evans' blue dye was intravenously (i.v.) injected, and TNP26-BSA (Ag: 0.1 μg) or mHRF-His6 (10 μg) were immediately injected into the ears. The acute (30 minute) reactions were analyzed by measurement of Evans' blue dye leakage. The ear thickness was measured using a micrometer (Mitutoyo) at 0.5, 1, 2, 4, 6, 8, 12, and 24 hours after mHRF-His6challenge. As a negative control, saline was injected into the ears in place of antigen or HRF challenge. IgG-mediated response was performed by sensitization with 2 μg IgG1 (in place of anti-TNP IgE) and challenge with anti-mouse IgG1 Ab (0.6 μg: Southern Biotechnology, in place of TNP26-BSA). Engraftmanet of Kit^W-sh/W-sh mice with BMMCs was performed 6 weeks before study (Nakano, T., et al. J Exp Med 162:1025-1043 (1985)). In some studies, mice were sensitized and stimulated as described above but without Evans blue.
To study HRFs involvement in IgE/antigen-induced PCA reactions, WT mice were overnight sensitized the IgE. Left ears were injected with GST and the right ears were injected with GST-N19, and then TNP26-BSA were injected in both ears. Ear thickness was measured over a 10 hour period. *, **, ***: p<0.05, p<0.01, p<0.001 by Student's t-test. […]

C57BL/6 mice = assay: OVA-induced mast cell-dependent airway inflammation model; type: in vivo, mouse
Protocol: Mice were sensitized with OVA (10 μg in 0.1 ml saline) at days 0, 7, 14, 21, 28, and 35. Sensitized mice were challenged with OVA (20 μg in 20 μl saline) at days 40, 43 and 46. Some mice were pretreated with GST, GST-N19 (400 μg in PBS), or N19 peptide (40 μg in 2% DMSO-containing PBS) 15 minutes before OVA challenge. Twenty-four hours after the last challenge, lung function in response to methacholine was tested using FlexiVent system (SCIREQ Scientific Respiratory Equipment). Mice were sacrificed and plasma, BAL fluids, and lung tissues were collected. Cells in BAL fluids were counted, and specific cell numbers were calculated after May-Giemsa staining of Cytospin preparations. Immunofluorescence microscopy was performed on membrane-permeabilized and non-permeabilized lung tissues. For staining of lung tissues by staining of H&E and periodic acid-Schiff (PAS), lung tissues were fixed with formalin and embedded in paraffin. For measurement of cytokine levels in lung tissues, lung homogenates were prepared (Oyoshi et al., Immunol. 120:303 (2007)) and cytokines quantified by ELISA. HRF in lung homogenates and plasma was SDS-PAGE and immunoblotting with anti-HRF Ab (Santa Cruz Biotechnology).
Asthma is a type 2 helper T cell-driven, chronic inflammatory lung disease (Wills-Karp, Annu Rev Immunol 17, 255 (1999)). To study HRF involvement in allergic airway inflammation, an airway inflammation model was utilized, in which mast cells are implicated in amplifying antigen-dependent chronic inflammation (Williams, et al., J Exp Med 192, 455 (Aug. 7, 2000)). C57BL/6 mice were first sensitized with OVA (10 μg) at days 0, 7, 14, 21, 28 and 35. At days 40, 43 and 46, mice were intranasally challenged with OVA (20 μg) or PBS. Some mice were intranasally pretreated with GST or GST-N19 (400 μg) before every OVA challenge. Twenty-four hours after the last challenge, mice were sacrificed and BAL fluids and lung tissues were collected. Lung tissues were homogenized.

mice = assay: T cell-dependent/mast cell-independent airway inflammation model (OVA with alum); type: in vivo, mouse; settings: mice immunized with OVA with alum and challenged with OVA
BALB/c mice = assay: Aspergillus fumigatus allergen-induced airway inflammation model; type: in vivo, mouse; settings: intranasal 200 ug/50 ul, 30 min before each immunization from the second week

With “GST-N19: GST fusion protein encoding the first 19 residues of mHRF; inhibitor of HRF/Ig interactions” the “Potency of inhibition of IgE binding relative to full-length HRF competitors” value (HRF/IgE binding) was “potency similar to that shown by GST-mHRF and mHRF-His6”, the “Inhibition of IgE binding to immobilized GST-mHRF” value (HRF/IgE binding; competitor incubated 2 hours) was “inhibited” and the “Inhibition of HRF/IgG binding” value (HRF/IgG binding) was “inhibited”. The Viability or proliferation [1] was “did not affect”, the “Live cells after induced apoptosis” value (CHO-K1 cells) was “not affected” and the “Effects on mast cell growth and apoptosis” value (BMMCs) was “absence of GST-N19 effects”. For the same substance, the “PCA (ear thickness)” value (WT mice; HRF-nonreactive IgE-induced PCA) was “insensitive”, the “Acute reactions and LPR (ear thickness)” value (WT mice; HRF-reactive IgE-induced PCA, TNP26-BSA challenge) was “significantly reduced” and the “Inflammatory cells, particularly eosinophils and neutrophils, in BAL fluids” value (C57BL/6 mice; 400 μg before every OVA challenge) was “reduced”. For the same substance, the “Inflammatory cells and goblet cell hyperplasia in the lung” value (C57BL/6 mice; H&E and PAS staining) was “reduced”, the HRF in plasma (C57BL/6 mice; OVA-immunized/OVA-challenged mice) was “reduced” and the Airway inflammation (C57BL/6 mice; intranasal pretreatment before each OVA challenge) was “abrogated”. For the same substance, the “Production of IL-5 in lung tissues” value (C57BL/6 mice; lung homogenates, ELISA) was “drastically decreased”, the “Production of IL-13 in lung tissues” value (C57BL/6 mice; lung homogenates, ELISA) was “drastically decreased; also recorded: suppression” and the “HRF-reactive IgG levels in plasma” value (C57BL/6 mice; mouse, in vivo) was “not affected”. For the same substance, the “OVA-specific IgE levels in plasma” value (C57BL/6 mice; mouse, in vivo) was “not affected”, the “OVA-specific IgG1 levels in plasma” value (C57BL/6 mice; mouse, in vivo) was “not affected” and the “OVA-specific IgG2a levels in plasma” value (C57BL/6 mice; mouse, in vivo) was “not affected”. The “Airway hyper-responsiveness (AHR)” value (C57BL/6 mice; response to methacholine) was “inhibited”, the Airway inflammation (mice) was “failed to inhibit; also recorded: does not inhibit” and the Airway inflammation (BALB/c mice) was “efficacy of GST-N19 was confirmed; also recorded: inhibits”.
